Results from patent US7045343B2, “Sterilization indicator test packs” (3M Innovative Properties Company, priority 1998, dated 2006).

Tests used:
[1] = tested on: enzyme associated with Bacillus stearothermophilus spores; test: Rapid enzyme fluorescence readout of dual rapid readout indicators after prevacuum steam sterilization; type: biochemical; settings: 4-pulse prevacuum steam 121° C.; for FLUORESCENCE - PERCENT POSITIVE 1 HR / FLUORESCENCE - PERCENT POSITIVE 2 HR / FLUORESCENCE - PERCENT POSITIVE 3 HR / FLUORESCENCE - PERCENT POSITIVE 4 HR: Example 5, 7–13 min
Experimental: (§1) The indicators prepared for the Examples were dual rapid readout indicators that provided both a rapid, enzyme-based efficacy test and a confirmatory spore outgrowth test. Spores coated on the carrier strip 16 served as the source of active enzyme whose activity was measured by the rapid enzyme test. These same spores were then incubated in the spore outgrowth portion of the test.
(§2) Bacillus stearothermophilus, commercially available as ATCC 7953 from American Type Culture Collection, Rockville, Md., was grown overnight (16 hours) at 58° C. in tryptic soy broth. This culture was used to inoculate the surface of agar plates consisting of 8 g/l nutrient broth, 4 g/l yeast extract, 0.1 g/l manganese chloride and 20 g/l agar at pH 7.2. Plates were incubated at 58° C. for 72 hours. Spores were scraped from the plates and suspended in sterile distilled water. The spores were separated from the vegetative debris by centrifuging the suspension at 7000 rpm and 4° C. for 20 minutes. The supernatant was poured off and the spores were resuspended in sterile distilled water. The cleaning procedure was repeated several times. After the final wash, the spores were suspended in sterile distilled water, at a concentration of approximately 1×10^8 spores per milliliter.
(§3) The spores were then treated with the chemicals identified in Tables 1–5. All chemicals tested were obtained from commercial sources. The spores were centrifuged at 6000 rpm for 10 minutes. The supernatant and coating chemical mixtures were heated at 60–80° C. for several minutes and vortexed to get the material into solution. The spores were then mixed into the sterilant-resistant chemical solution. The sterilant-resistant chemical solution was applied to 5×25 mm, 591 A paper strips (Schleicher & Schuell, Inc., Keene, N.H.) by pipetting 10–15 microliters to each strip for a final population of about 1×10^6 spores per strip. The strips were dried 16 hours at 37° C.
(§4) The treated spore strips were placed on the bottom of the outer container 12 of the indicator 10 and a barrier was inserted between the spore strip 16 and the inner container 18, which contained enzyme substrate. A […] ( 11/16 inch) disc of polypropylene blown microfiber material, with a weight of 200 g/m^2, commercially available as “THINSULATE™ 200-B brand Thermal Insulation” from 3M Company, St. Paul, Minn., was used as the barrier. The inner container 18 contained 0.67 ml nutrient medium, consisting of 17 g of a bacteriological peptone and a 0.17 g/l of L-alanine, as well as 0.1 g 4-methylumbelliferyl-alpha-D-glucoside, commercially available from Sigma Chemical Company, St. Louis, Mo., dissolved in 200 microliters of N,N-dimethylformamide, and 0.03 g bromocresol purple pH indicator dye, per liter of water. The pH of the enzyme substrate and nutrient medium solution was adjusted to 7.6 with 0.1N sodium hydroxide.
(§5) Sterilization indicators were made as described above with each of the chemicals and concentrations described in Table 1. Control indicators were made using untreated spores. The indicators were placed in metal instrument trays and exposed at 121° C. in a Getinge Steam Sterilizer (Getinge International, Inc., 1100 Towbin Ave., Lakewood, N.J.) using a 4-pulse prevacuum cycle at 121° C. with a vacuum level of 0.075–0.085 bar and a steam pulse to 1.00 bar for each pulse. Indicators were exposed in the sterilizer for between 7 and 13 minutes. This cycle is depicted in the time-pressure diagram in FIG. 5. After exposure the inner containers containing the enzyme substrate and nutrient medium were crushed and the indicators were incubated at 60° C. The indicators were examined for fluorescence using a 3M™ ATTEST™ Model 190 Rapid Autoreader, commercially available from 3M Company, St. Paul, Minn. Additionally, spore growth, as indicated by a color change from purple to yellow, was determined visually after 168 hours of incubation at 60° C. […]

[2] = tested on: Bacillus stearothermophilus spores; test: Spore outgrowth (color change) of indicators after prevacuum steam sterilization; type: cell-based; settings: Example 5, 4-pulse prevacuum steam 121° C., 7–13 min
Experimental: as §1, §2, §3, §4, §5

Row | Substance | accuracy of sterilization indicators compared to indicators made with untreated spores [1] | FLUORESCENCE - PERCENT POSITIVE 1 HR ([1]; 50 mg/ml coating) [%] | FLUORESCENCE - PERCENT POSITIVE 2 HR ([1]; 50 mg/ml coating) [%] | FLUORESCENCE - PERCENT POSITIVE 3 HR ([1]; 50 mg/ml coating) [%] | FLUORESCENCE - PERCENT POSITIVE 4 HR ([1]; 50 mg/ml coating) [%] | FLUORESCENCE - PERCENT POSITIVE 1 HR ([1]; 100 mg/ml coating) [%] | FLUORESCENCE - PERCENT POSITIVE 2 HR ([1]; 100 mg/ml coating) [%] | FLUORESCENCE - PERCENT POSITIVE 3 HR ([1]; 100 mg/ml coating) [%] | FLUORESCENCE - PERCENT POSITIVE 4 HR ([1]; 100 mg/ml coating) [%] | NO. GROWTH POSITIVE 168 HR ([2]; 50 mg/ml coating) | NO. GROWTH POSITIVE 168 HR ([2]; 100 mg/ml coating)
1 | Decaglyceryl Monoisostearate | improved | 33.3 | 77.8 | 88.9 | 88.9 | 37.5 | 100 | 100 | 100 | 9 | 8
2 | POE(60) Sorbitol Tetraoleate | – | 0 | 0 | 0 | 0 | 0 | 0 | 0 | 0 | 2 | 2
